Each compound was assayed against T1, Human Factor XIIa (hFXIIa) (Homo sapiens, UniProt P00748) (assay: Determination of Human Factor XIIa (hFXIIa) inhibition, fluorogenic substrate IC50 assay). Settings: fluorogenic substrate H-DPro-Phe-Arg-AFC at Km, 25° C., read-out: Human FXIIa IC50.
T1 construct: purchased Enzyme Research Laboratories
T1 sequence (P00748 373-615 limits assumed): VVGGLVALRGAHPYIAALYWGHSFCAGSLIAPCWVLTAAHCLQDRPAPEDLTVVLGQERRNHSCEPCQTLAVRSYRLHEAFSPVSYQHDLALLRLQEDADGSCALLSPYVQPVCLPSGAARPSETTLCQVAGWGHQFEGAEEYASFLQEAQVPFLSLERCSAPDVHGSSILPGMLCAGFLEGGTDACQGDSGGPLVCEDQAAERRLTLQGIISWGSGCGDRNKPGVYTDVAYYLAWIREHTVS
T1 sequence (P00748 20-372 partner limits assumed): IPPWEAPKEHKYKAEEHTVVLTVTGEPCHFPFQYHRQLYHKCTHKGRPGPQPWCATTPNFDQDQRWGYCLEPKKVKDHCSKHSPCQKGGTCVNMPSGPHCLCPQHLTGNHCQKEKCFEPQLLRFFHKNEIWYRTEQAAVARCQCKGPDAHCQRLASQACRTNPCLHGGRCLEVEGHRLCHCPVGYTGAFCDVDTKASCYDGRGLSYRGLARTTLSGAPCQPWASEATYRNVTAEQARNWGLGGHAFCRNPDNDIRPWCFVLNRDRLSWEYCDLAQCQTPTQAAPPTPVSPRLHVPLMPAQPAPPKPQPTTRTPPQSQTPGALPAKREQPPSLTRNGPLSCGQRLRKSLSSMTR
Format: biochemical
Protocol: Determination of Human Factor XIIa (hFXIIa) inhibition
The Km for the cleavage of the substrate by hFXIIa was determined by standard transformation of the Michaelis-Menten equation, with subsequent inhibition assays performed at substrate Km concentration.

Row | Compound | IC50 [µM]
1 | CN1CCc2ccc(N3CCc4c(CO)nn(-c5cccc(Cl)c5)c4C3=O)cc2C1=O [Example 1183, 7-(1-(3-chlorophenyl)-3-(hydroxymethyl)-7-oxo-1,4,5,7-tetrahydro-6H-pyrazolo[3,4-c]pyridin-6-yl)-2-methyl-3,4-dihydroisoquinolin-1(2H)-one] | 1 to 3
2 | CN(C)C(=O)c1cnnc(N2CCc3c(C(=O)NCC4CC4)nn(-c4cccc(Cl)c4)c3C2=O)c1 [Example 1298, 1-(3-chlorophenyl)-N-(cyclopropylmethyl)-6-(5-(dimethylcarbamoyl)pyridazin-3-yl)-7-oxo-4,5,6,7-tetrahydro-1H-pyrazolo[3,4-c]pyridine-3-carboxamide] | 3 to 10
3 | C[C@@H](NC(=O)c1nn(-c2cccc(Cl)c2)c2c1CCN(c1ccc3c(c1)C(=O)N(C)CC3)C2=O)c1cccnc1 [Example 1214, (R)-1-(3-chlorophenyl)-6-(2-methyl-1-oxo-1,2,3,4-tetrahydroisoquinolin-7-yl)-7-oxo-N-(1-(pyridin-3-yl)ethyl)-4,5,6,7-tetrahydro-1H-pyrazolo[3,4-c]pyridine-3-carboxamide] | 0.3 to 1
4 | CC(C)(O)CN1CCc2ccc(N3CCc4c(C(=O)NCC5CC5)nn(-c5cccc(Cl)c5)c4C3=O)cc2C1 [Example 1096, 1-(3-chlorophenyl)-N-(cyclopropylmethyl)-6-(2-(2-hydroxy-2-methylpropyl)-1,2,3,4-tetrahydroisoquinolin-7-yl)-7-oxo-4,5,6,7-tetrahydro-1H-pyrazolo[3,4-c]pyridine-3-carboxamide] | 0.3 to 1
5 | CN1CCc2ccc(N3CCc4c(C(=O)NCC5CC5)nn(-c5cc(Cl)ccn5)c4C3=O)cc2C1=O [Example 2016, 1-(4-chloropyridin-2-yl)-N-(cyclopropylmethyl)-6-(2-methyl-1-oxo-1,2,3,4-tetrahydroisoquinolin-7-yl)-7-oxo-4,5,6,7-tetrahydro-1H-pyrazolo[3,4-c]pyridine-3-carboxamide] | 3 to 10
6 | CCOC(=O)c1nn(-c2cccc(Cl)c2)c2c1CCN(c1ccc(OC)c(C(=O)N(C)C)c1)C2=O [Example 1324, ethyl 1-(3-chlorophenyl)-6-(3-(dimethylcarbamoyl)-4-methoxyphenyl)-7-oxo-4,5,6,7-tetrahydro-1H-pyrazolo[3,4-c]pyridine-3-carboxylate] | 1 to 3
7 | CCOC(=O)c1nn(-c2cc(C)cc(CN)c2)c2c1CCN(c1ccc3c(c1)C(=O)N(C)CC3)C2=O [Example 2022, ethyl 1-(3-(aminomethyl)-5-methylphenyl)-6-(2-methyl-1-oxo-1,2,3,4-tetrahydroisoquinolin-7-yl)-7-oxo-4,5,6,7-tetrahydro-1H-pyrazolo[3,4-c]pyridine-3-carboxylate] | 0.01 to 0.1
8 | CN1Cc2ccc(N3CCc4c(C(=O)NCC5CC5)nn(-c5cccc(Cl)c5)c4C3=O)cc2C1=O [Example 1192, 1-(3-chlorophenyl)-N-(cyclopropylmethyl)-6-(2-methyl-3-oxoisoindolin-5-yl)-7-oxo-4,5,6,7-tetrahydro-1H-pyrazolo[3,4-c]pyridine-3-carboxamide] | 3 to 10
9 | COCc1nn(-c2cccc(Cl)c2)c2c1CCN(c1ccc3c(c1)CN(C)CC3)C2=O [Example 1066, 1-(3-Chlorophenyl)-3-(methoxymethyl)-6-(2-methyl-1,2,3,4-tetrahydroisoquinolin-7-yl)-1,4,5,6-tetrahydro-7H-pyrazolo[3,4-c]pyridin-7-one] | 1 to 3
10 | CN(C)C(=O)c1cc(N2CCc3c(C(=O)NCC4CC4)nn(-c4cccc(Cl)c4)c3C2=O)ccc1F [Example 1281, 1-(3-chlorophenyl)-N-(cyclopropylmethyl)-6-(3-(dimethylcarbamoyl)-4-fluorophenyl)-7-oxo-4,5,6,7-tetrahydro-1H-pyrazolo[3,4-c]pyridine-3-carboxamide] | 3 to 10
11 | C[C@H](O)CN1CCc2ccc(N3CCc4c(C(=O)NCC5CC5)nn(-c5cccc(Cl)c5)c4C3=O)cc2C1 [Example 1070, (S)-1-(3-chlorophenyl)-N-(cyclopropylmethyl)-6-(2-(2-hydroxypropyl)-1,2,3,4-tetrahydroisoquinolin-7-yl)-7-oxo-4,5,6,7-tetrahydro-1H-pyrazolo[3,4-c]pyridine-3-carboxamide] | 0.1 to 0.3
12 | CCCN1CCc2ccc(N3CCc4c(C(=O)NCC5CC5)nn(-c5cccc(Cl)c5)c4C3=O)cc2C1 [Example 1052, 1-(3-chlorophenyl)-N-(cyclopropylmethyl)-7-oxo-6-(2-propyl-1,2,3,4-tetrahydroisoquinolin-7-yl)-4,5,6,7-tetrahydro-1H-pyrazolo[3,4-c]pyridine-3-carboxamide] | 0.1 to 0.3
13 | CCOC(=O)c1nn(-c2cccc(Cl)c2)c2c1CCN(c1cccc(N3CC(C(F)(F)F)CC3=O)c1)C2=O (centres unmarked) [Example 1405, ethyl 1-(3-chlorophenyl)-7-oxo-6-(3-(2-oxo-4-(trifluoromethyl)pyrrolidin-1-yl)phenyl)-4,5,6,7-tetrahydro-1H-pyrazolo[3,4-c]pyridine-3-carboxylate] | 10 to 40
14 | O=C1CC[C@@H](CN2CCc3ccc(N4CCc5c(C(=O)NCC6CC6)nn(-c6cccc(Cl)c6)c5C4=O)cc3C2)N1 [Example 1124, (S)-1-(3-chlorophenyl)-N-(cyclopropylmethyl)-7-oxo-6-(2-((5-oxopyrrolidin-2-yl)methyl)-1,2,3,4-tetrahydroisoquinolin-7-yl)-4,5,6,7-tetrahydro-1H-pyrazolo[3,4-c]pyridine-3-carboxamide] | 0.3 to 1
15 | CN1CCc2ccc(N3CCc4c(C(=O)NCC5CC5)nn(-c5csc(Cl)c5)c4C3=O)cc2C1=O [Example 2015] | 1 to 3
16 | COc1ccc(-n2nc(C(=O)NCc3cnccc3C)c3c2C(=O)N(c2ccc4c(c2)CN(CCO)CC4)CC3)cc1 [Example 2003, 6-(2-(2-hydroxyethyl)-1,2,3,4-tetrahydroisoquinolin-7-yl)-1-(4-methoxyphenyl)-N-((4-methylpyridin-3-yl)methyl)-7-oxo-4,5,6,7-tetrahydro-1H-pyrazolo[3,4-c]pyridine-3-carboxamide] | 0.3 to 1
17 | COCc1nn(-c2cccc(Cl)c2)c2c1CCN(c1ccc3c(c1)CN(CCO)CC3)C2=O [Example 1069, 1-(3-chlorophenyl)-6-(2-(2-hydroxyethyl)-1,2,3,4-tetrahydroisoquinolin-7-yl)-3-(methoxymethyl)-1,4,5,6-tetrahydro-7H-pyrazolo[3,4-c]pyridin-7-one] | 0.3 to 1
18 | CN1CCc2ccc(N3CCc4c(C(=O)NC5CCOC5)nn(-c5cccc(Cl)c5)c4C3=O)cc2C1 (centres unmarked) [Example 1042, 1-(3-chlorophenyl)-6-(2-methyl-1,2,3,4-tetrahydroisoquinolin-7-yl)-7-oxo-N-(tetrahydrofuran-3-yl)-4,5,6,7-tetrahydro-1H-pyrazolo[3,4-c]pyridine-3-carboxamide] | 0.3 to 1
19 | CN1CCc2ccc(N3CCc4c(C(=O)N5CCOCC5)nn(-c5cccc(Cl)c5)c4C3=O)cc2C1 [Example 1067, 1-(3-chlorophenyl)-6-(2-methyl-1,2,3,4-tetrahydroisoquinolin-7-yl)-3-(morpholine-4-carbonyl)-1,4,5,6-tetrahydro-7H-pyrazolo[3,4-c]pyridin-7-one] | 1 to 3
20 | COCC(C)N1CCc2ccc(N3CCc4c(C(=O)NCC5CC5)nn(-c5cccc(Cl)c5)c4C3=O)cc2C1 (centres unmarked) [Example 1060, 1-(3-chlorophenyl)-N-(cyclopropylmethyl)-6-(2-(1-methoxypropan-2-yl)-1,2,3,4-tetrahydroisoquinolin-7-yl)-7-oxo-4,5,6,7-tetrahydro-1H-pyrazolo[3,4-c]pyridine-3-carboxamide] | 0.1 to 0.3

From patent publication US20260132132A1, “3A,4,5,6-TETRAHYDRO-1 H-PYRAZOLO[3,4-C]PYRIDIN-7(7AH)-ONE DERIVATIVES AS FACTOR XIIA INHIBITORS” (KALVISTA PHARMACEUTICALS LIMITED, priority 2022, published 2026)
